# Measured values from patent publication US20230263915A1, “RADIOLABELED COMPOUNDS” (King's College London, priority 2020, published 2023).
# What was measured:
# left ventricle function = experiment: Echocardiography (cardiac ultrasound) in Doxorubicin minipump rats; type: in vivo
# Experimental: In order to assess cardiac function all rats were subjected to a cardiac ultrasound (Vevo 770™, VisualSonics) one day prior to osmotic pump implantation and a second ultrasound one day prior to PET/CT imaging. Rats were anaesthetized with 2% isoflurane in 100% oxygen and maintained at 37° C. via a homoeothermic platform and rectal thermometer. High-resolution parasternal left ventricle (LV) long axis M-mode and B-mode images were obtained using a RMV710B transducer. Images were analysed offline using Vevo Software to determine LV function.
# (§1) Male Wistar rats (280-300 g) were used in all experiments. Subcutaneous 7-day osmotic pumps (Alzet), containing either Doxorubicin (Cambridge Bioscience, 30 mg/kg cumulative dose) or vehicle (sterile 0.9% NaCl), were inserted into rats under 2% isoflurane in 100% oxygen.
# [1] = Stability tests monitored by HPLC in ethanol / PBS; type: physicochemical
# Experimental: (§2) Stability tests monitored by HPLC indicate that ^18F-FM074 is stable in both pure ethanol and 1% ethanol in PBS in the presence of ascorbic acid (0.01 mg/mL) for 4 h (not tested for longer). When incubated in rat serum at 37° C., 90% of ^18F-FM074 was intact in 1 hour (FIG. 3(A)). The stability of ^18F-FM108 in PBS was also determined and it was stable in 30 minutes (FIG. 3(B)).
# [2] = Chemoselectivity study: oxidation by other ROS, radioHPLC; conditions: in vitro; for reactivity to other biologically relevant ROS: qualitative
# Experimental: The different oxidants were prepared in PBS (900 μL). The ^18F-labelled compound was formulated as 0.5-2 MBq in 100 μL ethanol and added to the oxidant PBS solution. The final reaction mixture contains the ^18F-labelled compound (0.5-2 MBq) in the presence of 100 μM oxidant in PBS with 10% ethanol (final volume 1000 μL). The reaction was kept at room temperature for 5 min, after which it was injected into the HPLC for analysis. • Superoxide (O2^−): The ^18F-labelled compound in ethanol (100 μL) was added to PBS (900 μL) and the resulting solution was then added to a vial containing solid KO2 (1 mg), to make up a reaction mixture with 10 mM O2^−. • Hydrogen peroxide (H202): H2O2 (10 mM stock solution, 10 μL) was diluted in PBS (890 μL) followed by addition of the ^18F-labelled compound in ethanol (100 μL), to a final concentration of 100 μM. • Hydroxyl radical (⋅OH): hydroxyl radicals were generated in situ by reacting hydrogen peroxide (H202, 100 μM) with iron II ([…]). FeSO2.7H2O (5 mM stock, 200 μL) was diluted in PBS (690 μL) and H2O2 (10 mM stock, 10 μL) was added, followed by the ^18F-labelled compound in 100 μL ethanol. • Iron (II) sulfate heptahydrate (Fe^2+) (control): FeSO2.7H2O (5 mM stock, 200 μL) was diluted to a final concentration of 1000 μM in PBS (700 μL), and the ^18F-labelled compound in 100 μL ethanol was added after. • tert-butyl hydroperoxide (TBHP): TBHP (10 mM stock, 10 μL) was diluted in PBS (890 μL) followed by addition of the ^18F-labelled compound in ethanol, to a final concentration of 100 μM. • Tert-butoxy radical (t-BuO⋅): t-butoxy radicals were generated in situ by reacting tert-butyl hydroperoxide (TBHP, 100 μM) with Fe^2+ (1000 μM). FeSO2.7H2O (5 mM stock, 200 μL) was diluted in PBS (690 μL) and TBHP (10 mM stock, 1 μL) was added, followed by the ^18F-labelled compound in ethanol. • Peroxynitrite (ONOO^−): peroxynitrite was generated in situ by spontaneous decomposition of 3-morpholinosydnomine (SIN-1) in solution. […]
# [3] = Chemoselectivity study: oxidation by superoxide (KO2), radioHPLC; conditions: for oxidation by superoxide: 1 mg/mL KO2 in solution, 5 min, room temperature; for oxidation by superoxide in the presence of ascorbic acid: KO2 plus ascorbic acid 1 mg/mL
# Experimental: The different oxidants were prepared in PBS (900 μL). The ^18F-labelled compound was formulated as 0.5-2 MBq in 100 μL ethanol and added to the oxidant PBS solution. The final reaction mixture contains the ^18F-labelled compound (0.5-2 MBq) in the presence of 100 μM oxidant in PBS with 10% ethanol (final volume 1000 μL). The reaction was kept at room temperature for 5 min, after which it was injected into the HPLC for analysis. • Superoxide (O2^−): The ^18F-labelled compound in ethanol (100 μL) was added to PBS (900 μL) and the resulting solution was then added to a vial containing solid KO2 (1 mg), to make up a reaction mixture with 10 mM O2^−. • Hydrogen peroxide (H202): H2O2 (10 mM stock solution, 10 μL) was diluted in PBS (890 μL) followed by addition of the ^18F-labelled compound in ethanol (100 μL), to a final concentration of 100 μM. • Hydroxyl radical (⋅OH): hydroxyl radicals were generated in situ by reacting hydrogen peroxide (H202, 100 μM) with iron II ([…]). FeSO2.7H2O (5 mM stock, 200 μL) was diluted in PBS (690 μL) and H2O2 (10 mM stock, 10 μL) was added, followed by the ^18F-labelled compound in 100 μL ethanol. • Iron (II) sulfate heptahydrate (Fe^2+) (control): FeSO2.7H2O (5 mM stock, 200 μL) was diluted to a final concentration of 1000 μM in PBS (700 μL), and the ^18F-labelled compound in 100 μL ethanol was added after. • tert-butyl hydroperoxide (TBHP): TBHP (10 mM stock, 10 μL) was diluted in PBS (890 μL) followed by addition of the ^18F-labelled compound in ethanol, to a final concentration of 100 μM. • Tert-butoxy radical (t-BuO⋅): t-butoxy radicals were generated in situ by reacting tert-butyl hydroperoxide (TBHP, 100 μM) with Fe^2+ (1000 μM). FeSO2.7H2O (5 mM stock, 200 μL) was diluted in PBS (690 μL) and TBHP (10 mM stock, 1 μL) was added, followed by the ^18F-labelled compound in ethanol. • Peroxynitrite (ONOO^−): peroxynitrite was generated in situ by spontaneous decomposition of 3-morpholinosydnomine (SIN-1) in solution. SIN-1 (5 mM stock, 1 μL) was diluted in PBS (989 μL) containing the ^18F-labelled compound in ethanol (10 μL), to give a final concentration of […] ONOO^− in solution. • Nitric oxide (NO): NO was generated in situ by the NO-donor drug diethylamine NONOate (DEA/NO). A 33 mM stock solution of DEA/NO in 10 mM NaOH was used. 1 μL was diluted in PBS (990 μL) containing the ^18F-labelled compound in ethanol (10 μL), to give a final concentration of 33 μM DEA/NO in solution. The reaction was allowed to take place for 32 min at room temperature (˜20° C.) to allow DEA/NO to decompose into diethylamine and nitric oxide radical (NO) at a concentration of 50 μM, before HPLC analysis.
# [4] = LogD measurement, shake-flask partition between 1-octanol and PBS; type: physicochemical; conditions: 1-octanol / PBS pH 7.4
# Experimental: The lipophilicity of ^18F-FM074 and ^18F-FM074-Ox was determined by measuring their logD values using a variation of the conventional shake-flask method, namely a conventional partition method between 1-octanol and phosphate buffered saline (PBS), pH 7.4. The 1-octanol was saturated with PBS before use. The radiotracer (1 μL) in ethanol was added to a mixture of PBS (200 μL) and 1-octanol (200 μL) in a 1.5 mL Eppendorf vial (n =6). The vial was sealed and shaken, then centrifuged at 3000 g for 10 min. A 100 μL aliquot from each layer was drawn was added to separate tubes. The radioactivity content of each fraction was measured in a gamma counter. The LogDoct/PBS as calculated as follows: log [(cpm in the 1-octanol layer-cpm 1-octanol blank)/(cpm in the PBS layer-cpm pbs blank)].
# [5] = Stability in rat serum at 37° C. determined by radioHPLC; type: in vitro ADME; conditions: 1 hour
# Experimental: as §2
# [6] = Biodistribution in healthy Wistar rats; type: in vivo; conditions: for uptake by major organs (brain, heart, lung, spleen): i.v., 1, 5 and 30 min post-injection
# Experimental: Male Wistar rats (290-355 g) were placed in a warm box at 37° C. before being transferred to an anaesthesia induction box under an O2 flow rate of 1 L/min with isofluorane levels of 5%. The anaesthetised rat was transferred to an anaesthesia mask with an O2 flow rate of 1 L/min with isofluorane levels of 2.5%. The radiotracer (0.5-2.2 MBq, 200-600 μL in maximum 5% EtOH in PBS) was injected intravenously via a cannula inserted into a tail vein. The animals were sacrificed by cervical dislocation at 1, 5, and 30 min post-injection (n=3/group). The heart was immediately removed and rinsed with saline to washout the blood. Organs of interest as well as blood and urine were collected and the radioactivity measured in a gamma counter.
# [7] = PET imaging study in healthy C57BL/6J mice; type: in vivo
# Experimental: Wild type C57BL/6J mice (male, 26±2 g) were injected intravenously via the tail vein with [^18F]FM074 (1.2±1.1 MBq) in PBS containing sodium ascorbate (0.01 mg/mL). The animals were sacrificed either 3 min post-injection or after a 60 min PET (n=3/group). Organs and tissues of interest were harvested, weighed and the radioactivity measured in a gamma counter. Organ uptake was calculated as percentage injected dose per gram of tissue mass (% ID/g). Data are reported as mean±SD.
# The radiotracer is excreted by both renal and hepatobilliary routes in less than 1 hour (FIG. 5).
# [8] = system: xanthine oxidase/xanthine system; experiment: Oxidation by superoxide generated by the xanthine oxidase/xanthine system; type: biochemical; conditions: xanthine (1 mM) and catalase in PBS, 37° C., 5 min
# [9] = system: oxidative stress in heart (left ventricle); experiment: PET/CT imaging in rat model of Doxorubicin-induced cardiotoxicity; type: in vivo, rats
# Experimental: Wistar rats were randomly divided into two groups and were subjected to the implantation of an Alzet Osmotic minipump containing either Doxorubicin (30 mg/kg) in saline (n=6) or saline only (n=4) as control. The minipump releases the drug at a constant rate over seven days, after which PET/CT imaging was performed.
# as §1
# Doxorubicin (30 mg/kg) or only vehicle (saline) was delivered to the animals using the osmotic minipump for seven days, after which PET/CT imaging was performed.
# Animals were placed in a warm box at 37° C. before being transferred to an anaesthesia induction box under an 02 flow rate of 1 L/min with isofluorane levels of 5%. The anaesthetised rats were transferred to the PET bed and kept under anaesthesia with an O2 flow rate of 1 L/min with isofluorane levels of 2.5%. The radiotracer (0.5-2.2 MBq, 200-600 μL in maximum 5% EtOH in PBS) was injected intravenously via a cannula inserted into a tail vein. The injection start time coincided with the start of the PET acquisition in order to obtain dynamic tracer uptake information. The PET scans were acquired for 30 min, followed by a CT scan, after which the animals were sacrificed and organs harvested as for the biodistribution protocol. The PET data was analysed using VivoQuant.
# Subsequently, both groups were subjected to 30 min PET/CT scans with chest cavity in the field of view on day 7 of the treatment. (FIG. 8) The PET images were analysed into three segments: from 0 to 3 min, 3 to 10 min, and 10 to 30 min post-injection of ^18F-FM074.
# [10] = healthy C57BL/6 mice, i.v., PET
smiles,measurement,setting,value
COc1cccc2c1C(=O)c1c(O)c3c(c(O)c1C2=O)C[C@@](O)(C(=O)CO)C[C@@H]3O[C@H]1C[C@H](N)[C@H](O)[C@H](C)O1 [Doxorubicin],reduction of left ventricle ejection fraction vs baseline,"left ventricle function; 30 mg/kg via 7-day osmotic minipump, day 6 compared to day 0",15%
same,"left ventricle ejection fraction, Doxorubicin treated vs control groups","left ventricle function; ultrasound, FIG. 7",no significant difference
"COc1ccc(C2Sc3ccccc3N2CCC[18F])cc1 (stereo not drawn) [^18F-FM108, [^18F]3-(3-fluoropropyl)-2-(4-methoxyphenyl)-2,3-dihydrobenzo[d]thiazole]",stability in PBS,"[1]; PBS, 30 minutes (FIG. 3(B))",stable
same,reactivity to other biologically relevant ROS,[2],little or no reactivity
same,oxidation by superoxide,[3],54±4%
same,oxidation by superoxide in the presence of ascorbic acid,[3],38%
same,logD,[4],0.83±0.12
"[18F]CCCN1c2ccccc2SC1c1ccccc1 (stereo not drawn) [^18F-FM074, [^18F]3-(3-fluoropropyl)-2-phenyl-2,3-dihydrobenzo[d]thiazole]",stability in 1% ethanol in PBS,"[1]; 1% ethanol in PBS in the presence of ascorbic acid (0.01 mg/mL), for 4 h, HPLC",stable
same,stability in pure ethanol,"[1]; pure ethanol, for 4 h (not tested for longer), HPLC",stable
same,reactivity to other biologically relevant ROS,[2],little or no reactivity
same,oxidation by other endogenous ROS,"[2]; ⋅OH, H2O2, ⋅NO, ONOO^−",less than 10%
same,intact tracer in rat serum,[5],90%
same,clearance from the blood pool,[6]; 1 min post-injection,fast clearance
same,time to clearance from major organs,"[6]; hepatic and renal metabolism, excreted to small intestine and urine",under 30 min
same,"uptake by major organs (brain, heart, lung, spleen)",[6],rapid initial uptake
same,uptake in bone and muscle,[6]; within 30 min,little uptake
same,oxidation by superoxide,[3],58±8%
same,oxidation by superoxide in the presence of ascorbic acid,[3],31±5%
same,non-specific background retention,"[7]; healthy C57BL/6 mice, heart and brain, PET",no non-specific background retention
same,blood clearance,[7]; [10],fast blood clearance
same,time to excretion by renal and hepatobilliary routes,[7]; [10],less than 1 hour
same,tissue penetration,[7]; [10],excellent tissue penetration
same,uptake by heart and brain,[7]; [10],rapidly taken up
same,bone uptake (defluorination in vivo),"[7]; mice, after 1 hour",minimal
same,oxidised tracer observed in radioHPLC chromatogram,[8],53%
same,logD,[4],1.00±0.08
same,"ratio of standard uptake values LV to blood, Doxorubicin-treated vs control rats","[9]; 3-10 min post-injection, day 7 of Doxorubicin 30 mg/kg minipump",significantly (p<0.05) higher
same,liver uptake,"[9]; PET, Doxorubicin model rats, no significant difference between treated and control",high uptake
same,"heart uptake ex vivo after the PET/CT scan, treated vs control","[9]; ex vivo, after 30 min scan",no significant difference
same,"washout rate from the LV, Doxorubicin treated vs control","[9]; time-activity curves, FIG. 10",two-fold slower
"[18F]CCC[n+]1c(-c2ccccc2)sc2ccccc21.[Cl-] [^18F-FM074-Ox, [^18F]-(3-fluoropropyl)-2-phenylbenzo[d]thiazol-3-ium chloride]",clearance route,[6]; excreted through the urine,quickly cleared by the kidneys
same,"uptake by major organs (brain, heart, lung, spleen)",[6],significantly reduced uptake
same,logD,[4],−1.00±0.04
